Assay results: patent publication US20260034119A1, “5-METHOXY-N,N-[…][…], THEIR […], AND METHODS FOR TREATMENT OF NEUROLOGICAL, […], AND SUBSTANCE USE DISORDERS” (priority 2023, published 2026)
Where two headings read alike, the source gives them in different places.

Legend:
[1] = In vivo pharmacokinetics in mice (plasma and brain, subcutaneous); parameters: species or system mouse; details: for Kp / Cmax: male, C57BL/6, mouse, sc, 1 mg/kg; for Kp: brain and plasma
Method: Test System: Healthy male C57BL/6 mice (8-12 weeks old) weighing between 20 to 35 g were procured from Global (India). Three mice were housed in each cage. Temperature and humidity were maintained at 22±3° C. and 30-70%, respectively and illumination was controlled to give a sequence of 12 hr light and 12 hr dark cycle. Temperature and humidity were recorded by auto-controlled data logger system. All animals were provided laboratory rodent diet (Envigo Research Private Ltd, Hyderabad, India). Reverse osmosis water treated with UV light was provided ad libitum.
Study Design: Total twenty-seven male mice were used in this study with 3 mice/time point design. Animals were administered subcutaneously […] with solution formulation of compound at the requited dose.
Formulation Preparation: Accurately weighed of the desired compound was taken in a labeled bottle. To this the appropriate amount of normal saline was added, vortexed and followed by addition of 2 mol. equiv. of glacial acetic acid. The above formulation was again vortexed and sonicated for about 1 h with intermittent vortexing to obtain clear solution. The final dose formulation was filtered through 0.45 micron filter. No adverse clinical signs in any animals during study period.
Sample Collection: Blood samples (approximately 60 μL) were collected under light isoflurane anesthesia (Surgivet®) from retro orbital plexus from a set of three mice at 0.083, 0.25, 0.5, 1, 2, 4, 8, and 12 hr. Immediately after blood collection, plasma was harvested by centrifugation at 4000 rpm, 10 min at […] and samples were stored at −70±10° C. until bioanalysis. Following blood collection, immediately animals were sacrificed followed by abdominal vena-cava was cut open and whole body was perfused from heart using 10 mL of normal saline. Brain samples were collected from set of three mice at 0.083, 0.25, 0.5, 1, 2, 4, 8, and 12 hr. After isolation, brain samples were rinsed three times in ice cold normal saline (for 5-10 seconds/rinse using ˜5-10 mL normal saline in disposable petri dish for each rinse) and dried on blotting paper. Brain samples were homogenized using ice-cold phosphate buffer saline (pH-7.4). Total homogenate volume was three times the tissue weight. All homogenates were stored below −70±10° C. until bioanalysis.
Concentrations of the compound in mouse plasma and brain samples were determined by fit for purpose LC-MS/MS method. The sample processing and extraction procedure, chromatographic and mass spectrometric conditions as follows:
Non-Compartmental-Analysis tool of Phoenix WinNonlin® Version 8.0 (Certara, Princeton, NJ, USA) was used to assess the pharmacokinetic parameters. Peak plasma concentration (Cmax) and time for the peak plasma concentration (Tmax) were the observed values. The areas under the concentration time curve (AUClast and AUCinf) were calculated by linear trapezoidal rule. The terminal elimination rate constant, ke was determined by regression analysis of the linear terminal portion of the log plasma concentration-time curve. Tissue-Kps were calculated using Microsoft Excel® (Microsoft Corporation, […], WA, USA).

[2] = system: all human 5-HT receptor subtypes; test: PRESTO-TANGO arrestin-recruitment assay; assay type: cell-based; details: compared with 5-HT1A
Method: The receptor contructs were obtained from Addgene and contain the TEV cleavage site and the tetracycline transactivator (tTA) fused to the C terminus of the receptor. For the assay, constructs were transfected into HTLA cells (kindly provided by Dr. Bryan Roth, University of North Carolina), which express TEV fused-β-Arrestin2 and a tetracycline transactivator-driven luciferase and are necessary for this assay. A day before the assay cells were cultured in DMEM supplemented with 1% dFBS and transfected with 8 μg of DNA per 7 million cells in a 10 cm plate using PEI transfection. The next day, 20,000 cells in 40 μl were then plated in poly-L-lysine-coated clear-bottom 384-well plates in the same media and incubated for at least 5 hr before stimulation. […] After 16-24 hr overnight incubation, media and drug solutions were aspirated and 20 μl per well of BrightGlo reagent (purchased from Promega, after 1:20 dilution) was added per well. The plate was incubated for 20 min at room temperature in the dark before being counted using a MicroBeta TriLux liquid scintillation counter.

5-HT2A V366N = target: T1, 5-HT2A V366N (Homo sapiens, UniProt P28223, V366N); test: Gq BRET at mutant 5-HT2A V366N; assay type: cell-based; details: Gq BRET, 5-HT2A V366N^7.39
T1 construct: expressed in transfected cells; host or cells: HEK293-T
T1 sequence (P28223 whole entry V366N): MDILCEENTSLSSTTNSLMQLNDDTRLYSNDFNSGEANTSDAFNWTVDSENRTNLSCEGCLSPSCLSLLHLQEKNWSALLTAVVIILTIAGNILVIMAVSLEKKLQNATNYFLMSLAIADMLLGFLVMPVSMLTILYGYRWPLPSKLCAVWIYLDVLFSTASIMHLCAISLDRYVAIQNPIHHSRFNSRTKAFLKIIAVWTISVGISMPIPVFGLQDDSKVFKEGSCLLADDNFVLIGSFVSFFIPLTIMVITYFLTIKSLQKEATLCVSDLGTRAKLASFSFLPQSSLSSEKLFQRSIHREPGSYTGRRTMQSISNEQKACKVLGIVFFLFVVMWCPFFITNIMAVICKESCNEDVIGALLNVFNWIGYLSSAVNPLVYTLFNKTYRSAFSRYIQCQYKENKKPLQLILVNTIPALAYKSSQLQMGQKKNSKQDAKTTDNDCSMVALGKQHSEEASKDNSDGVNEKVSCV

PMAT = target: T2, PMAT (Homo sapiens, UniProt Q7RTT9); test: PMAT uptake inhibition; assay type: cell-based; details: compared with 5-HT1A
T2 construct: expressed in transfected cells; host or cells: Flp-In T-Rex cell line (ThermoFisher), tetracycline-induced
T2 sequence (Q7RTT9 1-530): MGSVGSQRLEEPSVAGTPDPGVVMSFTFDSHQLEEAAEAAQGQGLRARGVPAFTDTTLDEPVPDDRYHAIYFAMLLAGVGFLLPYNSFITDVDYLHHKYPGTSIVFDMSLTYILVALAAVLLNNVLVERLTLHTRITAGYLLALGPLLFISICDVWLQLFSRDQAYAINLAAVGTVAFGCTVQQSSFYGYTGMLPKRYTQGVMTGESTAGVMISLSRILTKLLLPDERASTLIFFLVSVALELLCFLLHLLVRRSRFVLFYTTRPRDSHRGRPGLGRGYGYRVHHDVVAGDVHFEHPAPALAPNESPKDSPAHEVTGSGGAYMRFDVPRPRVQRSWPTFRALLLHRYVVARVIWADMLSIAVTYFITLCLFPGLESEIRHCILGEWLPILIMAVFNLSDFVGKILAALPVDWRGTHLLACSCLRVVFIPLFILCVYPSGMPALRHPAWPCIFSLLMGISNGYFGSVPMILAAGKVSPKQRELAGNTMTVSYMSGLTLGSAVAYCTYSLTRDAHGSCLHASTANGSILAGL
Method: Inducible cell lines stably expressing OCT1, OCT2, or PMAT were generated using the Flp-In T-Rex cell line (ThermoFisher) according to manufacturer recommendations. Cells were maintained in DMEM supplemented with 10% FBS, 100 μg/ml hygromycin B (GoldBio), and 10 μg/ml blasticidin (GoldBio). To measure uptake inhibition, cells were seeded into poly-L-lysine coated clear-bottom 384-well plates at a density of 25,000 cells per well in DMEM containing 10% FBS and 2 μg/ml of tetracycline (Sigma) to induce transporter expression. […] Cells were incubated with drug for 30 min at 37° C. Fluorescent substrate was then added to the cells. […] Cells were incubated with respective substrates for an hour at 37° C. OCT2 cells were read directly in a Victor NIVO plate reader using 495 nm excitation and 580 emission filter for 0.1 s. OCT1 and PMAT cells were washed in HBSS supplemented with 20 mM HEPES pH 7.4 before reading in a Victor NIVO plate reader using 435 nm excitation and 480 nm emission filter for 0.1 s.

**Q.** What does the source list for COc1ccc2[nH]cc(CCN3CCCC3)c2c1F [4-F, 5-MeO-PyrT, 4-Fluoro, 5-methoxypyrrolidinyl-tryptamine]?
**A.** Kp ([1]; mouse, 1 mg/kg s.c., read-out: total brain:plasma ratio): 3.3; Kp ([1]; mouse, 1 mg/kg s.c., read-out: unbound brain:plasma ratio): 0.91; Cmax ([1]; brain, mouse brain, 1 mg/kg SC, read-out: Total Cmax (ng/mL), Brain): 143 ng/mL; Cmax ([1]; brain, mouse, 1 mg/kg subcutaneous, read-out: Cmax/brain): 143 ng/mL; Cmax ([1]; plasma, mouse plasma, 1 mg/kg SC, read-out: Total Cmax (ng/mL), Plasma): 44 ng/mL; Total AUClast ((hr*ng)/mL), Brain ([1]; mouse brain, 1 mg/kg SC): 128.34 ng·h/mL; time at which brain penetration peaks ([1]; mouse brain, 1 mg/kg s.c.): 30 min; Total AUClast ((hr*ng)/mL), Plasma ([1]; mouse plasma, 1 mg/kg SC): 26.40 ng·h/mL; compound largely cleared within ([1]; mouse, 1 mg/kg s.c.): ≤ 2 h; estimated free drug concentration in the brain at Tmax ([1]; mouse, 1 mg/kg s.c.): ~100 nM; activity at all other G protein-coupled serotonin receptors [2]: substantially lower activity; pEC50 (5-HT2A V366N): (6.8,; EC50 (5-HT2A V366N; read-out: EC50): 157 nM; activity at other neurotransmitter transporters (PMAT) (PMAT): substantially lower activity
